This note sets out measurements from US12043632B2, “6-heteroaryloxy benzimidazoles and azabenzimidazoles as JAK2 inhibitors” (Ajax Therapeutics, Inc., priority 2020, dated 2024).

Each structure is given as a SMILES string.

The target in this experiment is T1, JAK2 (JH1domain-catalytic, Y1007F,Y1008F) kinase (Homo sapiens, UniProt O60674, Y1007F/Y1008F).
T1 construct: JAK2 (JH1domain-catalytic, Y1007F,Y1008F) kinase was expressed as N-terminal fusion; made in house; host or cells: transiently transfected HEK293 cells
T1 sequence (O60674 849-1124 Y1007F/Y1008F limits assumed): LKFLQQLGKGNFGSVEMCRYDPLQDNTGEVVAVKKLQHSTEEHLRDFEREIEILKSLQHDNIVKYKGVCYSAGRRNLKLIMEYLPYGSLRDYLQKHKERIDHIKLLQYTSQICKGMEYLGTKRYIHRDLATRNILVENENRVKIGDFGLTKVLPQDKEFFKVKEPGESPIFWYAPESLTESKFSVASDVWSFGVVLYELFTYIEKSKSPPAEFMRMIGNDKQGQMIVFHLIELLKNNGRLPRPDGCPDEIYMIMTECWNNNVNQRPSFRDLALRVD
The experiment can be described thus: JAK2 JH1 Domain Binding Assay. The settings on record: qPCR readout.
In the case of `Cn1cc(C(F)(F)F)cc(Nc2nc3ncc(Oc4cnn5ccnc(N[C@@H]6CCOC6)c45)c(Cl)c3n2C)c1=O` [Example I-402, (R)-3-((7-chloro-1-methyl-6-((4-((tetrahydrofuran-3-yl)amino)pyrazolo[1,5-a]pyrazin-3-yl)oxy)-1H-imidazo[4,5-b]pyridin-2-yl)amino)-1-methyl-5-(trifluoromethyl)pyridin-2(1H)-one], the Kd is less than 10 nM.

The compound `Cn1cc(C(F)(F)F)cc(Nc2nc3ncc(Oc4cnn5cc(NCCN6CCC(F)(F)C6)ncc45)c(Cl)c3n2C)c1=O` [Example I-403, 3-((7-chloro-6-((6-((2-(3,3-difluoropyrrolidin-1-yl)ethyl)amino)pyrazolo[1,5-a]pyrazin-3-yl)oxy)-1-methyl-1H-imidazo[4,5-b]pyridin-2-yl)amino)-1-methyl-5-(trifluoromethyl)pyridin-2(1H)-one] showed a Kd of less than 10 nM.

For the compound `CNc1cn2ncc(Oc3cnc4nc(Nc5cc(C(F)(F)F)cn(C)c5=O)n(C)c4c3)c2cn1` [Example I-404, 1-methyl-3-((1-methyl-6-((6-(methylamino)pyrazolo[1,5-a]pyrazin-3-yl)oxy)-1H-imidazo[4,5-b]pyridin-2-yl)amino)-5-(trifluoromethyl)pyridin-2(1H)-one], the Kd fell in the range of 10 to 50 nM.
